Experimental data reported in patent US20180148470A1, “CHOLIC ACID DERIVATIVE, AND PREPARATION METHOD AND MEDICAL USE THEREOF” (Jiangsu Hansoh Pharmaceutical Group Co., Ltd., priority 2015, published 2018).

How the values were obtained:
[1] = Pharmacokinetic test in rats; format: in vivo, Sprague-Dawley (SD) rats; settings: male SD rats, intragastric administration of 10 mg/kg; for AUC(0-t) / Cmax / Tmax: Sprague-Dawley, rat, po, plasma; for AUC(0-t): read-out: area under the blood concentration-time curve AUC0-t; for Cmax: read-out: peak concentration Cmax; for Tmax: read-out: peak time of blood concentration tmax
Procedure: Pharmacokinetic Test in Rats
The pharmacokinetic study of the present invention was performed in rats. The pharmacokinetic behavior of the positive control INT-747 and a representative compound of the present invention, such as Example 14-β, was studied in rats, and their pharmacokinetic characteristics were evaluated.
(1) Three male Sprague-Dawley (SD) rats were used, which were supplied by Sippr-BK laboratory animal Co. Ltd. Animal Production License No. SOCK (Shanghai) 2008-0016.
(2) Then, 10 mg of the sample was weighed and added with 10 mL of 0.5% CMC-Na aqueous solution, the mixture was fully shaken to make a 1 mg/ml uniform solution, and the remaining liquid samples were used for quantitative analysis.
(3) Three male SD rats were intragastrically administered at 10 mg/kg with a volume of 10 mL/kg after fasting for one night.
(4) About 0.05 mL of underjaw intravenous blood was collected before and 0.5, 1.0, 2.0, 4.0, 6.0, 8.0, 24.0, 30.0 hours after administration, and then placed in a EDTA-K2 test tube. The blood was centrifuged at 6000 rpm for 5 minutes to isolate the plasma, which was stored at −80° C. The rats were feed 4 hours after administration.
(1) Instruments and Equipment: API 4000 triple quadrupole mass spectrometer, Applied Biosystems, USA; Shimadzu LC-20AD high performance liquid chromatography system, Shimadzu, Japan.
(2) Condition of chromatography: The chromatographic column was Phenomenex gemiu 5 um C18 50×4.6 mm; mobile phase was acetonitrile: 0.1% TFA aqueous solution (gradient elution); flow rate (ml/min) was 0.8 ml/min.

FXR = target: T1, FXR (Homo sapiens, UniProt Q96RI1); experiment: FXR reporter gene expression test (dual luciferase, FXR Gal4 reporter in HepG2 cells); format: cell-based; settings: HepG2 cells transiently transfected with FXR Gal4 reporter, 18 hours
T1 sequence (Q96RI1 262-486 limits assumed): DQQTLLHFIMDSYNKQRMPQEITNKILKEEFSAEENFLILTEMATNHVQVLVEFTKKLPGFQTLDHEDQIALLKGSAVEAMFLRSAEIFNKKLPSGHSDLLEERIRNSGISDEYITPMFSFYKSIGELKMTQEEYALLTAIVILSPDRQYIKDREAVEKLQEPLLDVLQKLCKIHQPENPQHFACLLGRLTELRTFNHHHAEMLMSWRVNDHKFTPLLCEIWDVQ
Text: FXR Reporter Gene Expression Test
To analyze the effect of testing compounds on FXR-regulated gene expression, we used Promega's dual luciferase assay system (Promega #E1980) to detect the effect of the compounds on the FXR reporter gene in HepG2 hepatoma cell line (ATCC #HB-8065), which was transiently transfected with the FXR Gal4 reporter gene fragment. Specific experimental methods are as follows:
1. HepG2 Cell Culture and Maintenance
Cells were digested and cells with appropriate density were grown in 10 mL complete medium and then cultivated for 24 hours under 37° C., 5% CO2 humidity conditions.
2. Cell planting and transfection. Transfection reagent was Fugene HD (Promega#E231A)
(1) The transfection mixture was prepared according to the following table
(2) The mixture in the tube was vigorously mixed and incubated at room temperature for 15 minutes;
(3) The cells were digested in the culture dish and counted;
(4) The cell suspension was diluted to the desired volume of 600,000/mL (96-well plates 100 μL/well);
(5) The required volume of the transfection mixture was added to the cell suspension, followed by plating at 100 μL/well;
(6) Incubated for 24 hours under 37° C., 5% CO2 humidity conditions.
3. Treatment of the Compound
(1) 10 mM of mother liquor of the compound was prepared and then serially diluted 3 times with DMSO;
(2) 10 μL of compound was added to 90 μL of complete medium (10×);
(3) 5 μL of the solution of the compound (21×) was added to each well;
(4) Incubated for 18 hours under 37° C., 5% CO2 humidity conditions.
The firefly luciferase and the renilla luciferase signal (Promega #E1980) were detected by Promega's dual-luciferase assay system.
(2) Calculating the agonist rate
Agonist rate=(X−Min)/(Max−Min)*100% • X represents the F/R value of each concentration; • Min represents the F/R value without adding compound; • Max represents the F/R value of the reference compound.
(3) EC50 was calculated according to GraphPrism 5.0

FXR receptor = target: T2, FXR receptor (Homo sapiens, UniProt Q96RI1); experiment: FXR receptor binding activity assay (TR-FRET; GST-FXR-LBD / SRC1 fragment); format: biochemical; settings: FXR-LBD binding to SRC1 fragment, agonist rate
T2 construct: Prepared 2× GST-labeled FXR-LBD/anti-GST Eu mixture to the required volume, the concentration of GST-FXR-LBD was 6 nM; purchased Life Technology Invitrogen PV4835
T2 sequence (Q96RI1 262-486 limits assumed): T1 sequence (Q96RI1 262-486 limits assumed)
T2 sequence (Q15788 676-700 partner limits assumed): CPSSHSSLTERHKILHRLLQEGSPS
Text: FXR Receptor Binding Activity Assay (Time-Resolved Fluorescence Detection Method TR-FRET Method)
To test the effect of the present compounds on FXR receptor binding, we selected the commercial FXR receptor binding activity assay kit to test the effect of the compounds on FXR and its binding protein fragments (LBD structural domain binds to SRC1 fragment) (kit supplier: Life Technology Invitrogen Catalog: PV4835; cisbio Catalog: 610SAXLA and 61GSTKLA). Specific method was described in the kit instructions. The operation was as follows:
1. Prepared 2× GST-labeled FXR-LBD/anti-GST Eu mixture to the required volume, the concentration of GST-FXR-LBD was 6 nM, Eu was 50 nL/well.
2. Prepared 2× biotin-labeled SRC1/[…] (SA-APC) mixture to the required volume, the concentration of SRC1 was 1000 nM, and […] was 50 nL/well.
3. 2× GST-FXR/Eu and SRC1/SA-APC were mixed in a proportion of 1:1.
4. 20 μL of a mixture of GST-FXR/Eu and SRC1/SA-APC was added to a 384-well plate containing the compounds to be tested.
5. Centrifuged for 1 minute at 1000 rpm; incubated for 180 minutes at room temperature.
6. Time-resolved fluorescence detection: EnVision reader.
(1) the value at 665 nm divided by the value at 615 nm;
(2) calculating the agonist rate
Agonist rate=(X−Min)/(Max−Min)*100% • X represents the 665/615 value for each concentration; • Min represents the 665/615 value without adding compound; • Max represents the 665/615 value of the reference compound.

CC[C@H]1[C@@H](O)[C@@H]2[C@H](CC[C@]3(C)[C@@H]([C@H](C)CCC(=O)O)CC[C@@H]23)[C@@]2(C)CC[C@@H](O)C[C@@H]12 [INT-747, reference compound]
AUC(0-t) [1]: 9.03 µg·h/mL
Cmax [1]: 4.41 µg/mL
Tmax [1]: 30 min

CC[C@H]1[C@@H](O)C2C3CCC([C@H](C)CC4SC(=O)NC4=O)[C@@]3(C)CCC2[C@@]2(C)CC[C@@H](O)C[C@@H]12 (single isomer, unassigned) [Example 14-β]
AUC(0-t) [1]: 41.8 µg·h/mL
Cmax [1]: 7.58 µg/mL
Tmax [1]: 60 min
exposed quantity in the tested animals compared with positive control INT-747 [1]: significantly better than that of the positive control INT-747
EC50 (FXR): 0.057 µM
EC50 (FXR receptor): 0.004 µM
